Source: patent publication US20070231406A1, “Use of gallium to treat biofilm-associated infections” (priority 2006, published 2007)
Where two headings read alike, the source gives them in different places.

Tests used:
[1] = test system: Pseudomonas aeruginosa Xen5; test: Biophotonic monitoring of catheter-associated UTI with bioluminescent P. aeruginosa Xen5 in CF-1 female mice; format: in vivo
Description: (§1) Catheter-associated UTI with Pseudomonas aeruginosa Xen5 (10^6 CFU/catheter) in CF-1 female mice was established as described by Kadurugamuwa et al. (2005) Infection and Immunity 73(7):3878-87). Gallium maltolate (GaM) was assessed for efficacy against urinary tract infection (UTI) by P. aeruginosa, alone or in combination with ciprofloxacin (cipro) using bioluminescent engineered P. aeruginosa Xen5 in a CF-1 female mice UTI model that allows real time monitoring of infection with the Xenogen IVIS® Imaging System.
(§2) Catheter-associated UTI with P. aeruginosa (10^6 colony forming units (CFU)/catheter) were established in mice and treated 2 days after infection for 4 consecutive days with GaM alone; or cipro alone; or the combination of GaM and cipro. A second cycle of treatment was started on days 9-11 and the study terminated on day 21. Controls included saline-treated uninfected and infected animals.
Ciprofloxacin US Pharmacopeia, Rockville, Md.) and gallium maltolate were administered by oral gavage. Ciprofloxacin was given in 0.2 mL of water and gallium maltolate in 0.2 mL water containing 1% carboxylmethyl cellulose. A second group of animals served as an untreated infection control group by being implanted with infected catheters and treated with saline. In another control group, animals were implanted with sterile catheters and served as a negative control.
Therapeutic agents were readministered for 3 consecutive days, after 4 days of cessation of the initial 4-day therapy.

P. aeruginosa Xen 5 = format: in vivo, Pseudomonas aeruginosa
Description: as §1, §2

P. aeruginosa Xen5 = format: in vivo, Pseudomonas aeruginosa
Description: as §1, §2

[2] = Pharmacokinetics of serum gallium (ICP-MS) after oral gallium maltolate in female CF-1 mice; format: in vivo; conditions: 30 and 300 mg/kg oral gavage q.d. for 4 days
Description: Adult, female CF-1 mice (initial weight range 32-39 gram) were treated with 30 and 300 mg/kg gallium maltolate by oral gavage q.d. for 4 consecutive days. Both doses were administered in the same volume of drug solution, i.e., 480 μL of 2.5 and 25 mg/mL gallium maltolate in 1% carboxyl methylcellulose. Blood was drawn at the following time points after the final dose administration: 0, 0.5, 1 3, 6, 9, 12, 24, 33 and 48 hours. Blood drawn at time point ‘0’ was taken immediately after dosing. Blood samples were collected within ±5% of the scheduled time point. Whole blood (500 to 1000 μL) was drawn from a single mouse by cardiac puncture, and four mice were sacrificed per time point for each dosing group. After blood collection, the specimens were held at room temperature to allow for clot formation followed by centrifugation to obtain serum. The concentration of gallium in 100 μL serum was determined by Inductively Coupled Plasma—Mass Spectrometry (ICP-MS).
After a weighted linear regression analysis calibration curve had been established and validated by quality control analysis, serum gallium concentrations in the samples were measured and the results plotted.

[3] = 7 days after infection, ciprofloxacin 30 mg/kg b.i.d. oral
[4] = 11 days after infection, ciprofloxacin 30 mg/kg b.i.d. oral
[5] = 14 days after infection, ciprofloxacin 30 mg/kg b.i.d. oral
[6] = 16 days after infection, ciprofloxacin 30 mg/kg b.i.d. oral
[7] = 17 days after infection, ciprofloxacin 30 mg/kg b.i.d. oral
[8] = 21 days after infection, ciprofloxacin 30 mg/kg b.i.d. oral
[9] = ciprofloxacin 30 mg/kg b.i.d. oral
[10] = 7 days after infection, gallium maltolate 300 mg/kg q.d. oral
[11] = 11 days after infection, gallium maltolate 30 mg/kg q.d. oral
[12] = 11 days after infection, gallium maltolate 100 mg/kg q.d. oral
[13] = 11 days after infection, gallium maltolate 300 mg/kg q.d. oral
[14] = 14 days after infection, gallium maltolate 300 mg/kg q.d. oral
[15] = 16 days after infection, gallium maltolate 30 mg/kg q.d. oral
[16] = 16 days after infection, gallium maltolate 100 mg/kg q.d. oral
[17] = 16 days after infection, gallium maltolate 300 mg/kg q.d. oral
[18] = 17 days after infection, gallium maltolate 30 mg/kg q.d. oral
[19] = 17 days after infection, gallium maltolate 100 mg/kg q.d. oral
[20] = 17 days after infection, gallium maltolate 300 mg/kg q.d. oral
[21] = 21 days after infection, gallium maltolate 30 mg/kg q.d. oral
[22] = 21 days after infection, gallium maltolate 100 mg/kg q.d. oral
[23] = 21 days after infection, gallium maltolate 300 mg/kg q.d. oral
[24] = gallium maltolate 30 mg/kg q.d. oral
[25] = gallium maltolate 100 mg/kg q.d. oral
[26] = gallium maltolate 300 mg/kg q.d. oral

O=C(O)c1cn(C2CC2)c2cc(N3CCNCC3)c(F)cc2c1=O [Ciprofloxacin, reference compound]
Percent bacterial growth in animals compared to untreated control ([1]; Day 2, ciprofloxacin 30 mg/kg b.i.d. oral): 100% | Percent bacterial growth in animals compared to untreated control ([1]; Day 5, ciprofloxacin 30 mg/kg b.i.d. oral): 3% | Percent bacterial growth in animals compared to untreated control ([1]; Day 8, ciprofloxacin 30 mg/kg b.i.d. oral): 9% | Percent bacterial growth in animals compared to untreated control ([1]; Day 10, ciprofloxacin 30 mg/kg b.i.d. oral): 2% | Percent bacterial growth in animals compared to untreated control ([1]; Day 15, ciprofloxacin 30 mg/kg b.i.d. oral): 138% | Percent bacterial growth in animals compared to untreated control ([1]; Day 21, ciprofloxacin 30 mg/kg b.i.d. oral): 272% | Bioluminescent signal after discontinuing first ciprofloxacin treatment ([1]; approximately two days after discontinuing the initial 4-day therapy): reestablishment of the infection upon cessation of antibiotic therapy | Bioluminescent signal in the bladder compared to untreated control ([1]; ciprofloxacin 30 mg/kg b.i.d., after four days of treatments): rapid decline in bioluminescent signal to almost nearly to undetectable levels | Bioluminescence signal on re-administration of antibiotic ([1]; re-administration for three consecutive days): repeat decline in the bioluminescence signal | Infection after discontinuation of second bout of ciprofloxacin treatment ([1]; soon after discontinuation of second treatment cycle): infection re-established once again and approximately reached untreated levels | Bacterial counts in urine, Geometric Mean (P. aeruginosa Xen 5; [3]): 3.3 × 10^3 CFU/ml | Range of bacterial counts in urine (P. aeruginosa Xen 5; [3]): 2.0 × 10^2-7.0 × 10^5 CFU/ml | Bacterial counts in urine, Geometric Mean (P. aeruginosa Xen 5; [4]): 2.0 × 10^2 CFU/ml | Range of bacterial counts in urine (P. aeruginosa Xen 5; [4]): 2.0 × 10^2 CFU/ml | Bacterial counts in urine, Geometric Mean (P. aeruginosa Xen 5; [5]): 1.1 × 10^5 CFU/ml | Range of bacterial counts in urine (P. aeruginosa Xen 5; [5]): 2.0 × 10^2-1.2 × 10^7 CFU/ml | Bacterial counts in urine, Geometric Mean (P. aeruginosa Xen 5; [6]): 3.2 × 10^4 CFU/ml | Range of bacterial counts in urine (P. aeruginosa Xen 5; [6]): 2.0 × 10^2-6.0 × 10^5 CFU/ml | Bacterial counts in urine, Geometric Mean (P. aeruginosa Xen 5; [7]): 1.2 × 10^5 CFU/ml | Range of bacterial counts in urine (P. aeruginosa Xen 5; [7]): 2.0 × 10^2-8.0 × 10^6 CFU/ml | Bacterial counts in urine, Geometric Mean (P. aeruginosa Xen 5; [8]): 2.2 × 10^5 CFU/ml | Range of bacterial counts in urine (P. aeruginosa Xen 5; [8]): 2.0 × 10^2-3.6 × 10^7 CFU/ml | % Mortality (P. aeruginosa Xen5; [9]): 12.5% | No. of animals with a kidney signal at day 21/Total no. of animals (P. aeruginosa Xen5; [9]): 1/7

Cc1occc(=O)c1[O-].Cc1occc(=O)c1[O-].Cc1occc(=O)c1[O-].[Ga+3] [Gallium maltolate, gallium maltolate]
Percent bacterial growth in animals compared to untreated control ([1]; Day 2, gallium maltolate 30 mg/kg q.d. oral): 100% | Percent bacterial growth in animals compared to untreated control ([1]; Day 2, gallium maltolate 100 mg/kg q.d. oral): 100% | Percent bacterial growth in animals compared to untreated control ([1]; Day 2, gallium maltolate 300 mg/kg q.d. oral): 100% | Percent bacterial growth in animals compared to untreated control ([1]; Day 5, gallium maltolate 30 mg/kg q.d. oral): 60% | Percent bacterial growth in animals compared to untreated control ([1]; Day 5, gallium maltolate 100 mg/kg q.d. oral): 33% | Percent bacterial growth in animals compared to untreated control ([1]; Day 5, gallium maltolate 300 mg/kg q.d. oral): 19% | Percent bacterial growth in animals compared to untreated control ([1]; Day 8, gallium maltolate 30 mg/kg q.d. oral): 10% | Percent bacterial growth in animals compared to untreated control ([1]; Day 8, gallium maltolate 100 mg/kg q.d. oral): 12% | Percent bacterial growth in animals compared to untreated control ([1]; Day 8, gallium maltolate 300 mg/kg q.d. oral): 7% | Percent bacterial growth in animals compared to untreated control ([1]; Day 10, gallium maltolate 30 mg/kg q.d. oral): 13% | Percent bacterial growth in animals compared to untreated control ([1]; Day 10, gallium maltolate 100 mg/kg q.d. oral): 2% | Percent bacterial growth in animals compared to untreated control ([1]; Day 10, gallium maltolate 300 mg/kg q.d. oral): 4% | Percent bacterial growth in animals compared to untreated control ([1]; Day 15, gallium maltolate 30 mg/kg q.d. oral): 54% | Percent bacterial growth in animals compared to untreated control ([1]; Day 15, gallium maltolate 100 mg/kg q.d. oral): 11% | Percent bacterial growth in animals compared to untreated control ([1]; Day 15, gallium maltolate 300 mg/kg q.d. oral): 20% | Percent bacterial growth in animals compared to untreated control ([1]; Day 21, gallium maltolate 30 mg/kg q.d. oral): 22% | Percent bacterial growth in animals compared to untreated control ([1]; Day 21, gallium maltolate 100 mg/kg q.d. oral): 1% | Percent bacterial growth in animals compared to untreated control ([1]; Day 21, gallium maltolate 300 mg/kg q.d. oral): 8% | Recurrence of infection after termination of administration ([1]; gallium maltolate 300 mg/kg): recurrence of high levels of infection did not occur | Bioluminescence signal level ([1]; gallium maltolate 300 mg/kg, remained until termination on day 21): approximately 10^5 photons/catheter | Antibacterial growth activity compared to untreated control ([1]; gallium maltolate 30 and 100 mg/kg): showed antibacterial growth activity | Bacterial counts in urine, Geometric Mean (P. aeruginosa Xen 5; [10]): 3.0 × 10^5 CFU/ml | Range of bacterial counts in urine (P. aeruginosa Xen 5; [10]): 1.3 × 10^5-1.5 × 10^6 CFU/ml | Bacterial counts in urine, Geometric Mean (P. aeruginosa Xen 5; [11]): 1.5 × 10^5 CFU/ml | Range of bacterial counts in urine (P. aeruginosa Xen 5; [11]): 1.2 × 10^5-1.8 × 10^5 CFU/ml | Bacterial counts in urine, Geometric Mean (P. aeruginosa Xen 5; [12]): 4.6 × 10^4 CFU/ml | Range of bacterial counts in urine (P. aeruginosa Xen 5; [12]): 2.0 × 10^2-6.0 × 10^6 CFU/ml | Bacterial counts in urine, Geometric Mean (P. aeruginosa Xen 5; [13]): 1.1 × 10^5 CFU/ml | Range of bacterial counts in urine (P. aeruginosa Xen 5; [13]): 2.2 × 10^4-6.2 × 10^5 CFU/ml | Bacterial counts in urine, Geometric Mean (P. aeruginosa Xen 5; [14]): 2.3 × 10^5 CFU/ml | Range of bacterial counts in urine (P. aeruginosa Xen 5; [14]): 1.2 × 10^5-6.0 × 10^5 CFU/ml | Bacterial counts in urine, Geometric Mean (P. aeruginosa Xen 5; [15]): 2.4 × 10^5 CFU/ml | Range of bacterial counts in urine (P. aeruginosa Xen 5; [15]): 1.2 × 10^5-6.0 × 10^5 CFU/ml | Bacterial counts in urine, Geometric Mean (P. aeruginosa Xen 5; [16]): 1.1 × 10^4 CFU/ml | Range of bacterial counts in urine (P. aeruginosa Xen 5; [16]): 2.0 × 10^2-3.0 × 10^6 CFU/ml | Bacterial counts in urine, Geometric Mean (P. aeruginosa Xen 5; [17]): 5.8 × 10^5 CFU/ml | Range of bacterial counts in urine (P. aeruginosa Xen 5; [17]): 3.2 × 10^5-8 × 10^5 CFU/ml | Bacterial counts in urine, Geometric Mean (P. aeruginosa Xen 5; [18]): 1.6 × 10^5 CFU/ml | Range of bacterial counts in urine (P. aeruginosa Xen 5; [18]): 4.0 × 10^4-6.0 × 10^5 CFU/ml | Bacterial counts in urine, Geometric Mean (P. aeruginosa Xen 5; [19]): 2.9 × 10^4 CFU/ml | Range of bacterial counts in urine (P. aeruginosa Xen 5; [19]): 2.0 × 10^2-2.0 × 10^6 CFU/ml | Bacterial counts in urine, Geometric Mean (P. aeruginosa Xen 5; [20]): 3.2 × 10^5 CFU/ml | Range of bacterial counts in urine (P. aeruginosa Xen 5; [20]): 4.0 × 10^4-1.6 × 10^6 CFU/ml | Bacterial counts in urine, Geometric Mean (P. aeruginosa Xen 5; [21]): 1.6 × 10^5 CFU/ml | Range of bacterial counts in urine (P. aeruginosa Xen 5; [21]): 1.2 × 10^4-2.0 × 10^6 CFU/ml | Bacterial counts in urine, Geometric Mean (P. aeruginosa Xen 5; [22]): 8.2 × 10^3 CFU/ml | Range of bacterial counts in urine (P. aeruginosa Xen 5; [22]): 2.0 × 10^2-1.4 × 10^6 CFU/ml | Bacterial counts in urine, Geometric Mean (P. aeruginosa Xen 5; [23]): 3.1 × 10^5 CFU/ml | Range of bacterial counts in urine (P. aeruginosa Xen 5; [23]): 1.6 × 10^5-5.6 × 10^6 CFU/ml | Kidney infections at the termination of the study (P. aeruginosa Xen5; at all doses tested, day 21): free of kidney infections | % Mortality (P. aeruginosa Xen5; [24]): 25.0% | No. of animals with a kidney signal at day 21/Total no. of animals (P. aeruginosa Xen5; [24]): 0/3 | % Mortality (P. aeruginosa Xen5; [25]): 25.0% | No. of animals with a kidney signal at day 21/Total no. of animals (P. aeruginosa Xen5; [25]): 0/3 | % Mortality (P. aeruginosa Xen5; [26]): 0.0% | No. of animals with a kidney signal at day 21/Total no. of animals (P. aeruginosa Xen5; [26]): 0/4 | Initial half-life of elimination of serum gallium [2]: 8 to 12 h | Time of peak serum gallium concentration ([2]; after final dose): within half hour
